Tests used:
PRMT5 [1] = target: T1, PRMT5 (Homo sapiens, UniProt O14744); experiment: PRMT5 biochemical IC50 assay with SAM as cofactor; conditions: PRMT5, SAM as cofactor; read-out: SAM IC50
T1 construct: purchased Viva (custom protein)

PRMT5 [2] = target: T1, PRMT5; experiment: PRMT5 biochemical IC50 assay with no cofactor; conditions: PRMT5, no cofactor
Description: Table 1 indicates IC50 values (μM) against PRMT5 for exemplary compounds in the presence of SAM as cofactor, with no cofactor, and with MTA as cofactor, respectively (columns 4-6). […] Ki values can be calculated from the IC50 values as described in the Examples section. As detailed in the Examples section, for the assay performed in the presence of SAM, IC50=Ki×1.5 (Ki=IC50/1.5).

PRMT5 [3] = target: T1, PRMT5; experiment: PRMT5 biochemical IC50 assay with MTA as cofactor; conditions: PRMT5, MTA as cofactor; read-out: MTA IC50
[4] = test system: HAP1 MTAP-intact cell line; experiment: SDMA in-cell western assay, HAP1 MTAP-intact; format: cell-based; conditions: Homo sapiens, HAP1, SDMA in-cell western, HAP1 MTAP-intact; read-out: MTAP HAP1 intact IC50
Method in brief: (§1)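 Compounds were tested in HAP1 cells differing only in MTAP status (endogenous expression versus null). Cellular SDMA levels were then measured by in-cell western, giving an IC50 in each background.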

[5] = test system: HAP1 MTAP-deleted cell line; experiment: SDMA in-cell western assay, HAP1 MTAP-deleted; format: cell-based; conditions: for IC50: Homo sapiens, HAP1, SDMA in-cell western, HAP1 MTAP-deleted; for MTAP intact/deleted ratio: SDMA in-cell western
Method in brief: as §1

[6] = test system: HAP1 MTAP-deleted cell line; experiment: Viability assay, MTAP-deleted cell line; format: cell-based; conditions: Homo sapiens, read-out: HAP1 MTAP deleted viability
Description: Table 1 additionally indicates IC50 values in a viability assay for the MTAP-deleted cell line (column 10), indicating the effect of treatment with compound on cell survival.

[7] = read-out: No Cofactor/ rel IC50
[8] = read-out: HAP 1 MTAP deleted IC50
[9] = IC50 ratio HAP1 MTAP-intact / HAP1 MTAP-deleted
[10] = HAP1, viability assay, MTAP-deleted cell line
[11] = read-out: HAP1 MTAP deleted IC50
[12] = HAP1, viability assay, HAP1 MTAP-deleted
[13] = HAP1, viability IC50, MTAP-deleted cell line
[14] = HAP1, viability, HAP1 MTAP-deleted cell line
[15] = IC50 ratio HAP1 MTAP-intact vs HAP1 MTAP-deleted

T1 sequence (O14744 whole entry): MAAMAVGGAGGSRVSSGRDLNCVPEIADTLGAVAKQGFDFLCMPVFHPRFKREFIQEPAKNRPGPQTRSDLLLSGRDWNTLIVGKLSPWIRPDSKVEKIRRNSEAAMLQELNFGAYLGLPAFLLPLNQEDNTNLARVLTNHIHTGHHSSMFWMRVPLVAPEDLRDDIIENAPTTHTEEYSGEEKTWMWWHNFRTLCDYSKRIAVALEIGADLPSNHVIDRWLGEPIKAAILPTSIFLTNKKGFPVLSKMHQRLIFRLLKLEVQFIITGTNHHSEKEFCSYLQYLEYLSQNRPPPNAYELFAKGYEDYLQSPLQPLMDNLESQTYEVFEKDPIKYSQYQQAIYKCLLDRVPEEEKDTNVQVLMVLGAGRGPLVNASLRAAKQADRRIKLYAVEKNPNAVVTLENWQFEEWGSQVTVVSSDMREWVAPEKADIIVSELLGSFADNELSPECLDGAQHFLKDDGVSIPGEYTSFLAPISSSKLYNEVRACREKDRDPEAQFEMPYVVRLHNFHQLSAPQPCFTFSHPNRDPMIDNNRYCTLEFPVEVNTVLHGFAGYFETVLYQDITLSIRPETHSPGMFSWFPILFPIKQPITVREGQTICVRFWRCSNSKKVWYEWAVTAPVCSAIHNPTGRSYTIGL
T1 sequence (Q9BQA1 whole entry partner): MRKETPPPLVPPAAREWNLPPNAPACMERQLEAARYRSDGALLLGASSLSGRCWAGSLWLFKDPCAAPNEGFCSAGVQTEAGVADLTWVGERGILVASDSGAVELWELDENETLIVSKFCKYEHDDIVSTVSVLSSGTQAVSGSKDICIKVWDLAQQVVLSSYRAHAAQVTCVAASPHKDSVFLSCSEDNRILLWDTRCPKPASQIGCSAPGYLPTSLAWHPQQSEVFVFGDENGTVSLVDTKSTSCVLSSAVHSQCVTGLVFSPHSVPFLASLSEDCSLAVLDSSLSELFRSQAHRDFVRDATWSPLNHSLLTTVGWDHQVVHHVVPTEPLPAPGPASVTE

Row | IC50 (PRMT5 [1]) [nM] | IC50 (PRMT5 [2]; [7]) [nM] | IC50 (PRMT5 [3]) [nM] | IC50 [4] [nM] | IC50 [5, 8] [nM] | IC50 (PRMT5 [2]; read-out: No Cofactor/rel IC50) [nM] | IC50 [5, 11] [nM] | SMILES | MTAP intact/deleted ratio [5, 9] | IC50 [6, 10] [nM] | IC50 [6, 12] [nM] | IC50 [6, 13] [nM] | IC50 [6, 14] [nM] | MTAP intact/deleted ratio [5, 15]
1 | 50 to 500 | > 500 | 50 to 500 | > 1000 | > 1000 |  |  | Cc1cncc(NC(=O)C(=O)N2C[C@H](C)CC[C@H]2c2ccnc(C)c2)c1 (racemic) [Compound 14, 2-[(2S,5R)-5-methyl-2-(2-methyl-4-pyridyl)-1-piperidyl]-N-(5-methyl-3-pyridyl)-2-oxo-acetamide] | C (an IC50 ratio of less than 3 fold) | > 10000 |  |  |  | 
2 | 50 to 500 |  | < 50 | > 1000 |  | < 50 | < 100 | Cc1ncc(NC(=O)C(=O)N2C[C@H](C)CC[C@H]2c2ccc3c(c2)CCC(=O)N3)cc1Cl (single isomer, unassigned) [Compound 726] | A (an IC50 ratio greater than or equal to 10 fold) |  | < 1000 |  |  | 
3 | > 500 |  | > 500 | > 1000 | > 1000 | > 500 |  | Cc1cc(NC(=O)C(=O)N2C[C@H](C)CC[C@H]2c2ccc3[nH]ncc3c2)cnc1C (single isomer, unassigned) [Compound 631] | C (an IC50 ratio of less than 3 fold) |  |  | > 10000 |  | 
4 | 50 to 500 |  | 50 to 500 | > 1000 | 100 to 1000 | 50 to 500 |  | Cc1ccc([C@H]2CC[C@H](C)CN2C(=O)C(=O)Nc2cncc(C(N)=O)c2)nc1 (racemic) [Compound 937, 5-[[2-[(2R,5S)-5-Methyl-2-(5-methyl-2-pyridyl)-1-piperidyl]-2-oxo-acetyl]amino]pyridine-3-carboxamide] | A (an IC50 ratio greater than or equal to 10 fold) | 1000 to 10000 |  |  |  | 
5 | > 500 |  | 50 to 500 | > 1000 |  | > 500 | 100 to 1000 | CCc1cc(NC(=O)C(=O)N2C[C@@H](C)CC[C@@H]2c2ccc(-c3cncs3)cc2)cnc1N (single isomer, unassigned) [Compound 827, N-(6-amino-5-ethylpyridin-3-yl)-2-(5-methyl-2-(4-(thiazol-5-yl)phenyl)piperidin-1-yl)-2-oxoacetamide] | A (an IC50 ratio greater than or equal to 10 fold) |  | > 10000 |  |  | 
6 | 50 to 500 | < 50 | < 50 | < 100 | < 100 |  |  | CCc1cc(NC(=O)C(=O)N2C[C@@H](C)CC[C@@H]2c2ccc3ccc(C4CCN(C)CC4)nc3c2)cnc1N [Compound 1365, N-(6-amino-5-ethyl-3-pyridyl)-2-oxo-2-[(2R,5S)-5-methyl-2-[2-(1-methyl-4-piperidyl)-7-quinolyl]-1-piperidyl]acetamide] | A (an IC50 ratio greater than or equal to 10 fold) |  |  |  | < 1000 | 
7 | 50 to 500 |  | < 50 | 100 to 1000 |  | 50 to 500 | < 100 | CNc1cccc([C@@H]2CC[C@@H](C)CN2C(=O)C(=O)Nc2cnc(N)c(C)c2)c1 (single isomer, unassigned) [Compound 449] | A (an IC50 ratio greater than or equal to 10 fold) | < 1000 |  |  |  | 
8 | > 500 | > 500 | > 500 | > 1000 | > 1000 |  |  | Cc1cc(NC(=O)C(=O)N2C[C@@H](C)[C@H](OC(C)C)C[C@@H]2c2ccccc2)cnc1N (single isomer, unassigned) [Compound 1327] |  |  |  |  | 1000 to 10000 | 
9 | 50 to 500 |  | < 50 | > 1000 | 100 to 1000 | 50 to 500 |  | Cc1cc(NC(=O)C(=O)N2C[C@H](C)CC[C@H]2c2cccc3c2CCN3)cnc1N (single isomer, unassigned) [Compound 962] | A (an IC50 ratio greater than or equal to 10 fold) | 1000 to 10000 |  |  |  | 
10 | < 50 |  | < 50 | < 100 |  | < 50 | < 100 | CCc1cc(NC(=O)C(=O)N2C[C@@H](C)CC[C@@H]2c2ccc3sc([C@@H]4C[C@H]5CN(C)C[C@H]54)nc3c2)cnc1N [Compound 1147, N-(6-amino-5-ethylpyridin-3-yl)-2-((5S)-5-methyl-2-(2-(3-methyl-3-azabicyclo[3.2.0]heptan-6-yl)benzo[d]thiazol-5-yl)piperidin-1-yl)-2-oxoacetamide] |  | < 1000 |  |  |  | A (an IC50 ratio greater than or equal to 10 fold)

Continued, compound first:

Row | SMILES | IC50 (PRMT5 [1]) [nM] | IC50 (PRMT5 [2]; [7]) [nM] | IC50 (PRMT5 [3]) [nM] | IC50 [4] [nM] | IC50 [5, 8] [nM] | IC50 (PRMT5 [2]; read-out: No Cofactor/rel IC50) [nM] | IC50 [5, 11] [nM] | MTAP intact/deleted ratio [5, 9] | IC50 [6, 10] [nM] | IC50 [6, 12] [nM] | IC50 [6, 13] [nM] | IC50 [6, 14] [nM] | MTAP intact/deleted ratio [5, 15]
11 | COc1ncc(NC(=O)C(=O)N2C[C@@H](C)CC[C@@H]2c2cncs2)cc1C(N)=O (single isomer, unassigned) [Compound 516] | < 50 |  | < 50 | > 1000 |  | < 50 | < 100 | A (an IC50 ratio greater than or equal to 10 fold) | < 1000 |  |  |  | 
12 | COc1cc([C@@H]2CC[C@@H](C)CN2C(=O)C(=O)Nc2cnc(N)c(C)c2)ccn1 (single isomer, unassigned) [Compound 545] | 50 to 500 |  | < 50 | 100 to 1000 | < 100 | < 50 |  | B (an IC50 ratio greater than or equal to 3 fold but lower than 10 fold) |  |  | < 1000 |  | 
13 | NC(=O)c1cncc(NC(=O)C(=O)N2CCCCC2c2ccccc2)c1 (stereo not shown) [Compound 29, 5-[[2-oxo-2-(2-phenyl-1-piperidyl)acetyl]amino]pyridine-3-carboxamide] | 50 to 500 | > 500 | 50 to 500 | > 1000 | 100 to 1000 |  |  | A (an IC50 ratio greater than or equal to 10 fold) | > 10000 |  |  |  | 
14 | Cc1cc(NC(=O)C(=O)N2C[C@H](C)[C@H](OC(F)(F)F)C[C@H]2c2ccc(F)cc2)cnc1N (single isomer, unassigned) [Compound 1323] | > 500 | > 500 | > 500 | > 1000 | > 1000 |  |  |  |  |  |  | > 10000 | 
15 | Cc1ncc(NC(=O)C(=O)N2C[C@@H](C)CC[C@@H]2c2ccc3sc(C4CCN(C)CC4)nc3c2)cc1Cl [Compound 1102, N-(5-chloro-6-methylpyridin-3-yl)-2-((2R,5S)-5-methyl-2-(2-(1-methylpiperidin-4-yl)benzo[d]thiazol-5-yl)piperidin-1-yl)-2-oxoacetamide] | < 50 |  | < 50 | 100 to 1000 |  | < 50 | < 100 |  | < 1000 |  |  |  | A (an IC50 ratio greater than or equal to 10 fold)
16 | C[C@@H]1CC[C@@H](c2ccc3c(c2)CCCO3)N(C(=O)C(=O)Nc2cncc(C(N)=O)c2)C1 (racemic) [Compound 341, rac-5-{2-[(2R,5S)-2-(3,4-Dihydro-2H-1-benzopyran-6-yl)-5-methylpiperidin-1-yl]-2-oxoacetamido}pyridine-3-carboxamide] | 50 to 500 |  | 50 to 500 | > 1000 |  | 50 to 500 | < 100 | A (an IC50 ratio greater than or equal to 10 fold) | 1000 to 10000 |  |  |  | 
17 | Cc1cc(NC(=O)C(=O)N2C[C@@H](C)CC[C@@H]2c2ccc3sc(-c4cn(C)cn4)nc3c2)cnc1N [Compound 1214, N-(6-amino-5-methylpyridin-3-yl)-2-((2R,5S)-5-methyl-2-(2-(1-methyl-1H-imidazol-4-yl)benzo[d]thiazol-5-yl)piperidin-1-yl)-2-oxoacetamide] | 50 to 500 |  | < 50 | 100 to 1000 |  | < 50 | < 100 |  | < 1000 |  |  |  | A (an IC50 ratio greater than or equal to 10 fold)
18 | C[C@H]1CC[C@H](c2ccc3sc(CCN(C)C)nc3c2)N(C(=O)C(=O)Nc2cncc(C(N)=O)c2)C1 (single isomer, unassigned) [Compound 1128] | > 500 |  | > 500 | > 1000 |  | > 500 | 100 to 1000 |  | 1000 to 10000 |  |  |  | 
19 | Cc1cncc(NC(=O)C(=O)N2C[C@@H](C)CC[C@H]2c2cccc(F)c2)c1 (single isomer, unassigned) [Compound 1080] | > 500 |  | > 500 | > 1000 |  | > 500 | > 1000 |  | > 10000 |  |  |  | C (an IC50 ratio of less than 3 fold)
